In ChEMBL document CHEMBL4420071, “Method for treating skin with retinoids and retinoid boosters” (2013):

How the values were obtained:
Homo sapiens [1] = organism: Homo sapiens; experiment: Inhibition of transglutaminase in human keratinocytes assessed as mean transglutaminase activity level at 3.73 10^-4M in presence of 10 uM retinal relative to retinal alone; format: cell-based; parameters: scale not given: the % may be the effect or the level left
Homo sapiens [2] = organism: Homo sapiens; experiment: Inhibition of transglutaminase in human keratinocytes assessed as mean transglutaminase activity level at 9.1 10^-4M in presence of 10 uM retinal relative to retinal alone; format: cell-based; parameters: scale not given: the % may be the effect or the level left
Homo sapiens [3] = organism: Homo sapiens; experiment: Inhibition of transglutaminase in human keratinocytes assessed as mean transglutaminase activity level at 1.23 10^-4M in presence of 10 uM retinal relative to retinal alone; format: cell-based; parameters: scale not given: the % may be the effect or the level left
Homo sapiens [4] = organism: Homo sapiens; experiment: Inhibition of transglutaminase in human keratinocytes assessed as mean transglutaminase activity level at 3.1 10^-5M in presence of 10 uM retinal relative to retinal alone; format: cell-based; parameters: scale not given: the % may be the effect or the level left
Homo sapiens [5] = organism: Homo sapiens; experiment: Inhibition of transglutaminase in human keratinocytes assessed as mean transglutaminase activity level at 1.2 10^-5M in presence of 10 uM retinal relative to retinal alone; format: cell-based; parameters: scale not given: the % may be the effect or the level left
Homo sapiens [6] = organism: Homo sapiens; experiment: Inhibition of transglutaminase in human keratinocytes assessed as mean transglutaminase activity level at 3.65 10^-6M in presence of 10 uM retinal relative to retinal alone; format: cell-based; parameters: scale not given: the % may be the effect or the level left
Homo sapiens [7] = organism: Homo sapiens; experiment: Inhibition of transglutaminase in human keratinocytes assessed as mean transglutaminase activity level at 1.29 10^-6M in presence of 10 uM retinal relative to retinal alone; format: cell-based; parameters: scale not given: the % may be the effect or the level left
Homo sapiens [8] = organism: Homo sapiens; experiment: Inhibition of transglutaminase in human keratinocytes assessed as mean transglutaminase activity level at 2 10^-7M in presence of 10 uM retinal relative to retinal alone; format: cell-based; parameters: scale not given: the % may be the effect or the level left
Homo sapiens [9] = organism: Homo sapiens; experiment: Inhibition of transglutaminase in human keratinocytes assessed as mean transglutaminase activity level at 5.1 10^-8M in presence of 10 uM retinal relative to retinal alone; format: cell-based; parameters: scale not given: the % may be the effect or the level left
Homo sapiens [10] = organism: Homo sapiens; experiment: Inhibition of transglutaminase in human keratinocytes assessed as mean transglutaminase activity level at 1 10^-8M in presence of 10 uM retinal relative to retinal alone; format: cell-based; parameters: scale not given: the % may be the effect or the level left
Homo sapiens [11] = organism: Homo sapiens; experiment: Inhibition of transglutaminase in human keratinocytes assessed as mean transglutaminase activity level at 1.6 10^-4M in presence of 10 uM retinal relative to retinal alone; format: cell-based; parameters: scale not given: the % may be the effect or the level left
Homo sapiens [12] = organism: Homo sapiens; experiment: Inhibition of transglutaminase in human keratinocytes assessed as mean transglutaminase activity level at 5.33 10^-5M in presence of 10 uM retinal relative to retinal alone; format: cell-based; parameters: scale not given: the % may be the effect or the level left
Homo sapiens [13] = organism: Homo sapiens; experiment: Inhibition of transglutaminase in human keratinocytes assessed as mean transglutaminase activity level at 1.78 10^-5M in presence of 10 uM retinal relative to retinal alone; format: cell-based; parameters: scale not given: the % may be the effect or the level left
Homo sapiens [14] = organism: Homo sapiens; experiment: Inhibition of transglutaminase in human keratinocytes assessed as mean transglutaminase activity level at 5.93 10^-6M in presence of 10 uM retinal relative to retinal alone; format: cell-based; parameters: scale not given: the % may be the effect or the level left
Homo sapiens [15] = organism: Homo sapiens; experiment: Inhibition of transglutaminase in human keratinocytes assessed as mean transglutaminase activity level at 1.98 10^-6M in presence of 10 uM retinal relative to retinal alone; format: cell-based; parameters: scale not given: the % may be the effect or the level left
Homo sapiens [16] = organism: Homo sapiens; experiment: Inhibition of transglutaminase in human keratinocytes assessed as mean transglutaminase activity level at 6.58 10^-7M in presence of 10 uM retinal relative to retinal alone; format: cell-based; parameters: scale not given: the % may be the effect or the level left
Homo sapiens [17] = organism: Homo sapiens; experiment: Inhibition of transglutaminase in human keratinocytes assessed as mean transglutaminase activity level at 2.19 10^-9M in presence of 10 uM retinal relative to retinal alone; format: cell-based; parameters: scale not given: the % may be the effect or the level left
Homo sapiens [18] = organism: Homo sapiens; experiment: Inhibition of transglutaminase in human keratinocytes assessed as mean transglutaminase activity level at 4.39 10^-8M in presence of 10 uM retinal relative to retinal alone; format: cell-based; parameters: scale not given: the % may be the effect or the level left
Homo sapiens [19] = organism: Homo sapiens; experiment: Inhibition of transglutaminase in human keratinocytes assessed as mean transglutaminase activity level at 8.78 10^-9M in presence of 10 uM retinal relative to retinal alone; format: cell-based; parameters: scale not given: the % may be the effect or the level left
Homo sapiens [20] = organism: Homo sapiens; experiment: Inhibition of transglutaminase in human keratinocytes assessed as mean transglutaminase activity level at 1.79 10^-9M in presence of 10 uM retinal relative to retinal alone; format: cell-based; parameters: scale not given: the % may be the effect or the level left
[21] = molecular target: T1, Cellular retinoic acid-binding protein 2 (Homo sapiens) (UniProt P29373); experiment: Inhibition of radioactive all-trans retinoic acid binding to CRABP2 (unknown origin) expressed in Escherichia coli BLR(DE3)pLys incubated for 1 hr by scintillation counting assay; settings: concentration not given here
T1 sequence (whole entry): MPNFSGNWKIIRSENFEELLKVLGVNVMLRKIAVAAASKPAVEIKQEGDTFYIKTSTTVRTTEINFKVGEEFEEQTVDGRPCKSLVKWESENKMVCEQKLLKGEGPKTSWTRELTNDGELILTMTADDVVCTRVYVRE

Homo sapiens [22] = organism: Homo sapiens; experiment: Inhibition of transglutaminase in human keratinocytes assessed as mean transglutaminase activity level at 1.23 10^-5M in presence of 10 uM retinal relative to retinal alone; format: cell-based; parameters: scale not given: the % may be the effect or the level left
Homo sapiens [23] = organism: Homo sapiens; experiment: Inhibition of transglutaminase in human keratinocytes assessed as mean transglutaminase activity level at 4.1 10^-5M in presence of 10 uM retinal relative to retinal alone; format: cell-based; parameters: scale not given: the % may be the effect or the level left
Homo sapiens [24] = organism: Homo sapiens; experiment: Inhibition of transglutaminase in human keratinocytes assessed as mean transglutaminase activity level at 8.2 10^-6M in presence of 10 uM retinal relative to retinal alone; format: cell-based; parameters: scale not given: the % may be the effect or the level left
Homo sapiens [25] = organism: Homo sapiens; experiment: Inhibition of transglutaminase in human keratinocytes assessed as mean transglutaminase activity level at 1.65 10^-7M in presence of 10 uM retinal relative to retinal alone; format: cell-based; parameters: scale not given: the % may be the effect or the level left
Homo sapiens [26] = organism: Homo sapiens; experiment: Inhibition of transglutaminase in human keratinocytes assessed as mean transglutaminase activity level at 3.29 10^-7M in presence of 10 uM retinal relative to retinal alone; format: cell-based; parameters: scale not given: the % may be the effect or the level left
Homo sapiens [27] = organism: Homo sapiens; experiment: Inhibition of transglutaminase in human keratinocytes assessed as mean transglutaminase activity level at 5.0 10^-8M in presence of 10 uM retinal relative to retinal alone; format: cell-based; parameters: scale not given: the % may be the effect or the level left
Homo sapiens [28] = organism: Homo sapiens; experiment: Inhibition of transglutaminase in human keratinocytes assessed as mean transglutaminase activity level at 1.1 10^-8M in presence of 10 uM retinal relative to retinal alone; format: cell-based; parameters: scale not given: the % may be the effect or the level left
Homo sapiens [29] = organism: Homo sapiens; experiment: Inhibition of transglutaminase in human keratinocytes assessed as mean transglutaminase activity level at 2 10^-8M in presence of 10 uM retinal relative to retinal alone; format: cell-based; parameters: scale not given: the % may be the effect or the level left
Homo sapiens [30] = organism: Homo sapiens; experiment: Inhibition of transglutaminase in human keratinocytes assessed as mean transglutaminase activity level at 4.3 10^-9M in presence of 10 uM retinal relative to retinal alone; format: cell-based; parameters: scale not given: the % may be the effect or the level left
Homo sapiens [31] = organism: Homo sapiens
Description: Inhibition of transglutaminase in human keratinocytes in presence of 10 uM retinal relative to retinal alone

Homo sapiens [32] = organism: Homo sapiens; experiment: Inhibition of transglutaminase in human keratinocytes assessed as mean transglutaminase activity level at 1.14 10^-3M in presence of 10 uM retinal relative to retinal alone; format: cell-based; parameters: scale not given: the % may be the effect or the level left
Homo sapiens [33] = organism: Homo sapiens; experiment: Inhibition of transglutaminase in human keratinocytes assessed as mean transglutaminase activity level at 3.8 10^-4M in presence of 10 uM retinal relative to retinal alone; format: cell-based; parameters: scale not given: the % may be the effect or the level left
Homo sapiens [34] = organism: Homo sapiens; experiment: Inhibition of transglutaminase in human keratinocytes assessed as mean transglutaminase activity level at 3.3123 10^-4M in presence of 10 uM retinal relative to retinal alone; format: cell-based; parameters: scale not given: the % may be the effect or the level left
Homo sapiens [35] = organism: Homo sapiens; experiment: Inhibition of transglutaminase in human keratinocytes assessed as mean transglutaminase activity level at 4.22 10^-5M in presence of 10 uM retinal relative to retinal alone; format: cell-based; parameters: scale not given: the % may be the effect or the level left
Homo sapiens [36] = organism: Homo sapiens; experiment: Inhibition of transglutaminase in human keratinocytes assessed as mean transglutaminase activity level at 1.41 10^-6M in presence of 10 uM retinal relative to retinal alone; format: cell-based; parameters: scale not given: the % may be the effect or the level left
Homo sapiens [37] = organism: Homo sapiens; experiment: Inhibition of transglutaminase in human keratinocytes assessed as mean transglutaminase activity level at 4.69 10^-7M in presence of 10 uM retinal relative to retinal alone; format: cell-based; parameters: scale not given: the % may be the effect or the level left
Homo sapiens [38] = organism: Homo sapiens; experiment: Inhibition of transglutaminase in human keratinocytes assessed as mean transglutaminase activity level at 6.26 10^-8M in presence of 10 uM retinal relative to retinal alone; format: cell-based; parameters: scale not given: the % may be the effect or the level left
Homo sapiens [39] = organism: Homo sapiens; experiment: Inhibition of transglutaminase in human keratinocytes assessed as mean transglutaminase activity level at 1.25 10^-8M in presence of 10 uM retinal relative to retinal alone; format: cell-based; parameters: scale not given: the % may be the effect or the level left
Homo sapiens [40] = organism: Homo sapiens; experiment: Inhibition of transglutaminase in human keratinocytes assessed as mean transglutaminase activity level at 6.9 10^-9M in presence of 10 uM retinal relative to retinal alone; format: cell-based; parameters: scale not given: the % may be the effect or the level left
Homo sapiens [41] = organism: Homo sapiens; experiment: Inhibition of transglutaminase in human keratinocytes assessed as mean transglutaminase activity level at 1.0 10^-9M in presence of 10 uM retinal relative to retinal alone; format: cell-based; parameters: scale not given: the % may be the effect or the level left
Homo sapiens [42] = organism: Homo sapiens; experiment: Inhibition of transglutaminase in human keratinocytes assessed as mean transglutaminase activity level at 1.4 10^-2M in presence of 10 uM retinal relative to retinal alone; format: cell-based; parameters: scale not given: the % may be the effect or the level left
Homo sapiens [43] = organism: Homo sapiens; experiment: Inhibition of transglutaminase in human keratinocytes assessed as mean transglutaminase activity level at 4.8 10^-3M in presence of 10 uM retinal relative to retinal alone; format: cell-based; parameters: scale not given: the % may be the effect or the level left
Homo sapiens [44] = organism: Homo sapiens; experiment: Inhibition of transglutaminase in human keratinocytes assessed as mean transglutaminase activity level at 1 10^-3M in presence of 10 uM retinal relative to retinal alone; format: cell-based; parameters: scale not given: the % may be the effect or the level left

## CCCCCCCCCCCCCCCCC(O)C(=O)O (configuration not stated)
Homo sapiens [1]
  Activity: 69.3%
Homo sapiens [2]
  Activity: 46.6%
Homo sapiens [3]
  Activity: 51%
Homo sapiens [4]
  Activity: 96%
Homo sapiens [5]
  Activity: 105%
Homo sapiens [6]
  Activity: 63%
Homo sapiens [7]
  Activity: 80%
Homo sapiens [8]
  Activity: 142%
Homo sapiens [9]
  Activity: 64%
Homo sapiens [10]
  Activity: 58%

## CCCCCCCC(=O)OC[C@H](COP(=O)([O-])OCC[N+](C)(C)C)OC(=O)CCCCCCC
Homo sapiens [11]
  Activity: 58.1%
Homo sapiens [12]
  Activity: 95.4%
Homo sapiens [13]
  Activity: 104%
Homo sapiens [14]
  Activity: 129%
Homo sapiens [15]
  Activity: 110%
Homo sapiens [16]
  Activity: 92.8%
Homo sapiens [17]
  Activity: 88.6%
Homo sapiens [18]
  Activity: 127%
Homo sapiens [19]
  Activity: 119%
Homo sapiens [20]
  Activity: 82%

## CCCCCCC(O)CCCCCCCCCCC(=O)O (configuration not stated)
[21]
  inhibition: > 50%
Homo sapiens [22]
  Activity: -5.2%
Homo sapiens [23]
  Activity: 32.4%
Homo sapiens [24]
  Activity: 97.6%
Homo sapiens [25]
  Activity: 90.2%
Homo sapiens [26]
  Activity: 82%
Homo sapiens [27]
  Activity: 81%
Homo sapiens [28]
  Activity: 98%
Homo sapiens [29]
  Activity: 118%
Homo sapiens [30]
  Activity: 71%
Homo sapiens [31]
  IC20: 1.45 ×10⁻⁵ M

## O=C(Nc1ccc(Cl)cc1)Nc1ccc(Cl)c(Cl)c1
Homo sapiens [32]
  Activity: 36.3%
Homo sapiens [33]
  Activity: 3.8%
Homo sapiens [34]
  Activity: -3.2%
Homo sapiens [35]
  Activity: -11.2%
Homo sapiens [36]
  Activity: -0.3%
Homo sapiens [37]
  Activity: 15.9%
Homo sapiens [38]
  Activity: 18.9%
Homo sapiens [39]
  Activity: 100%
Homo sapiens [40]
  Activity: 77.6%
Homo sapiens [41]
  Activity: 54.4%
Homo sapiens [31]
  IC20: 6.18 ×10⁻⁷ M

## COc1cc(C=O)ccc1O
Homo sapiens [1]
  Activity: 101%
Homo sapiens [22]
  Activity: 82%
Homo sapiens [23]
  Activity: 98%
Homo sapiens [24]
  Activity: 109%
Homo sapiens [25]
  Activity: 80%
Homo sapiens [26]
  Activity: 93%
Homo sapiens [42]
  Activity: 21.5%
Homo sapiens [43]
  Activity: 93.8%
Homo sapiens [44]
  Activity: 124%
Homo sapiens [31]
  IC20: 8.47 ×10⁻³ M
